As a reminder, the IC50 is the concentration at which inhibition is half-maximal.

In series [1] the test system is HT29, TOV-112D, isogenic HCT116 cell lines, HFF-1 and MRC5. As to the kind of experiment: Cell viability assay, panel of cancer cell lines and normal cells (results in words). The series is classed as cell-based, human. The note with it: 10 μM; all cell lines tested and normal cells. As to the method:
(§1) Figure 2 p53-dependent inhibition of cell proliferation is only observed at specific concentrations. (A–J) Cell viability assay, dose response curves and IC50 value measurements in a panel of cancer cell lines and normal cells. Cells were treated with different concentrations of ZMC1, CP-313908, APR-246, Ellipticine, Nutalin-3a or DMSO for 72 h. Luciferase activity was imaged by the IVIS Imaging System after treatment. Cell viability data were normalized to those of DMSO treatment control in each cell line and data analyses were performed using PRISM4 software. IC50 data are expressed as the mean ±SD (normal; n = 3).
(§2) Cells were seeded in 96-well plates (6 × 10^3 cells/well). Cells were treated with different concentrations of compounds or dimethyl sulfoxide (DMSO) as a control for 72 hours. The cell viability was assessed by CellTiterGlo bioluminescent cell viability assay (Promega), following the manufacturer’s protocol. Bioluminescence imaging was measured using the IVIS imager. The percentage of cell viability (mean ± SEM) at each dose was calculated against the respective DMSO control. The IC50 values were determined from the sigmoidal dose-response curves using GraphPad Prism.

In series [2] the test system is HCT116 (wild-type), SW480 (R273H, P309S), and DLD1 (S241F). In words: Cell viability assay in colorectal cancer cell lines (Figure 1E). The series is classed as cell-based, human. The note with it: 72 h. As to the method:
as §1, with “1 PG3 inhibits” for “2 p53-dependent inhibition of”, “and growth in a p53-indepent manner. (A–E)” for “is only observed at specific concentrations. (A–J)”, “PG3, PG3-Oc (Oc), obatoclax (Ob), prodigiosin (P)” for “ZMC1, CP-313908, APR-246, Ellipticine, Nutalin-3a”
as §2

The test system of the next series is p53 protein. As to the kind of experiment: Western blot, p53 protein levels. The series is classed as cell-based, human. The method, then: Cells were treated for 24 h with indicated compounds, concentrations and cell lines. Abbreviations: S.E.: Short exposure; L.E.: Long exposure.
(§3) After treatment, protein lysates were collected for Western blot analysis. A total of 15 μg of protein was used for SDS-PAGE. After primary and secondary antibody incubations, the signal was detected by a chemiluminescence detection kit, imaged by Syngene (Imgen Technologies). Antibodies for NAG-1 (GDF15) and P53 were from Santa Cruz Biotechnology; for caspase 8, cleaved caspase 8, caspase 9, caspase 3, cleavage PARP, eIF2α, p-eIF2α (Ser51), CHOP, ATF4, DR5, and PUMA were from Cell Signaling Technology. Noxa and p21 were from Calbiochem. Ran was from BD Biosciences.

A further series concerns HCT116 (R175H). As to the kind of experiment: Cell viability assay (CellTiterGlo), HCT116 R175H. The series is classed as cell-based, human. The note with it: Homo sapiens, HCT-116; 72 h, CellTiterGlo. As to the method:
as §1, with “1 PG3 inhibits” for “2 p53-dependent inhibition of”, “and growth in a p53-indepent manner. (A–E)” for “is only observed at specific concentrations. (A–J)”, “PG3, PG3-Oc (Oc), obatoclax (Ob), prodigiosin (P)” for “ZMC1, CP-313908, APR-246, Ellipticine, Nutalin-3a”
as §1, §2
In general terms: Cellular ATP, detected with luciferase, serves as a proxy for viable cell number.

The next series relates to PUMA. In words: Western blot, PUMA induction. The note with it: five cell lines, 24 h. It counts as cell-based, human. The method, then:
(§4) Figure 4 Activation of ATF4 and up-regulation of typical p53 target genes. (A–E) Western blot analysis of p53 protein levels and upregulation of ATF4, PUMA, DR5 and p21. Cells were treated for 24 h with indicated compounds, concentrations and cell lines. Abbreviations: S.E.: Short exposure; L.E.: Long exposure.
as §3

For another series, the system named is HCT116 (WT). As to the kind of experiment: Cell viability assay (CellTiterGlo), HCT116 WT. It counts as cell-based, human. The note with it: Homo sapiens, HCT-116; 72 h, CellTiterGlo. As to the method: as §1, with “1 PG3 inhibits” for “2 p53-dependent inhibition of”, “and growth in a p53-indepent manner. (A–E)” for “is only observed at specific concentrations. (A–J)”, “PG3, PG3-Oc (Oc), obatoclax (Ob), prodigiosin (P)” for “ZMC1, CP-313908, APR-246, Ellipticine, Nutalin-3a”
as §1, §2

The test system of another series is HCT116 (P53−/−). As to the kind of experiment: Cell viability assay (CellTiterGlo), HCT116 p53-/-. The series is classed as cell-based, human. The note with it: Homo sapiens, HCT-116; 72 h, CellTiterGlo. The method, then: as §1, with “1 PG3 inhibits” for “2 p53-dependent inhibition of”, “and growth in a p53-indepent manner. (A–E)” for “is only observed at specific concentrations. (A–J)”, “PG3, PG3-Oc (Oc), obatoclax (Ob), prodigiosin (P)” for “ZMC1, CP-313908, APR-246, Ellipticine, Nutalin-3a”
as §1, §2

Series [3] relates to SW480 cells carrying a p53-responsive luciferase reporter. In words: p53-responsive reporter assay. The series is classed as cell-based, human. As to the method:
SW480 cells carrying a p53-responsive luciferase reporter were used for assay of functional restoration of mutant p53. Cells were seeded in 96-well plates (5 × 10^4 cells/well) and were treated with compounds indicated for 6 and 15 h, respectively. Then, D-luciferin was added to each well with final concentration 100 μg/mL, and cells were imaged by using an IVIS Imaging System to detect luciferase activity.
p53-mutant SW480 human colon cancer cells, stably expressing a p53-responsive luciferase reporter, were used to assay functional restoration p53 pathway-dependent transcription in mutant p53-expressing tumor cells. Cells were seeded in 96-well plates (5 × 10^4 cells/well) and were treated with small-molecule compounds for 6 and 15 h, respectively. Then, D-luciferin was added to each well at a final concentration of 100 μg/mL, and cells were imaged by using an IVIS Imaging System (Xenogen) to detect luciferase activity.
(A reporter such as luciferase makes a cellular process visible.)

A further series deals with p21. As to the kind of experiment: Western blot, p21 induction. The series is classed as cell-based, human. The note with it: five cell lines, 24 h. The method, then:
as §4, §3

For series [4] the following is noted: cited from earlier work.
Another series relates to TOV-112D (R175H). In words: Cell viability assay (CellTiterGlo), TOV-112D. The series is classed as cell-based, human. The note with it: Homo sapiens, TOV112D; 72 h, CellTiterGlo; read-out: IC50 values, TOV-1120 (R175H) (converted). As to the method:
as §1, with “1 PG3 inhibits” for “2 p53-dependent inhibition of”, “and growth in a p53-indepent manner. (A–E)” for “is only observed at specific concentrations. (A–J)”, “PG3, PG3-Oc (Oc), obatoclax (Ob), prodigiosin (P)” for “ZMC1, CP-313908, APR-246, Ellipticine, Nutalin-3a”
as §1, §2

The test system of series [5] is HFF-1 (human foreskin fibroblast cell with wild-type p53). In words: Cell viability assay (CellTiterGlo), HFF-1 normal cells. The note with it: Homo sapiens, HFF-1; 72 h, CellTiterGlo, normal cells; read-out: IC50 values, HFF-l (WT). It counts as cell-based. The method, then: as §1, with “1 PG3 inhibits” for “2 p53-dependent inhibition of”, “and growth in a p53-indepent manner. (A–E)” for “is only observed at specific concentrations. (A–J)”, “PG3, PG3-Oc (Oc), obatoclax (Ob), prodigiosin (P)” for “ZMC1, CP-313908, APR-246, Ellipticine, Nutalin-3a”
as §1, §2

The subject of another series is HT29 (R273H). As to the kind of experiment: Cell viability assay (CellTiterGlo), HT29. The series is classed as cell-based, human. The note with it: Homo sapiens, HT-29; 72 h, CellTiterGlo. As to the method: as §1, with “1 PG3 inhibits” for “2 p53-dependent inhibition of”, “and growth in a p53-indepent manner. (A–E)” for “is only observed at specific concentrations. (A–J)”, “PG3, PG3-Oc (Oc), obatoclax (Ob), prodigiosin (P)” for “ZMC1, CP-313908, APR-246, Ellipticine, Nutalin-3a”
as §1, §2

A further series relates to ATF4. As to the kind of experiment: Western blot, ATF4 induction. It counts as cell-based, human. The note with it: five cancer cell lines, 24 h. As to the method:
as §4, §3
On the technique in general: In western blotting, separated proteins are transferred to a membrane and probed.

Another series concerns DR5. As to the kind of experiment: Western blot, DR5 induction. The series is classed as cell-based, human. The note with it: five cell lines, 24 h. As to the method: as §4, §3
Series [6] deals with MRC5 (human lung fibroblast cell with wild-type p53). As to the kind of experiment: Cell viability assay (CellTiterGlo), MRC5 normal cells. The note with it: Homo sapiens, MRC5, 72 h, read-out: IC50 values, MRC5 (WT). It counts as cell-based. The method, then:
as §1, with “1 PG3 inhibits” for “2 p53-dependent inhibition of”, “and growth in a p53-indepent manner. (A–E)” for “is only observed at specific concentrations. (A–J)”, “PG3, PG3-Oc (Oc), obatoclax (Ob), prodigiosin (P)” for “ZMC1, CP-313908, APR-246, Ellipticine, Nutalin-3a”
as §1, §2

Regarding `CCCCCCCCOC(=O)CCc1c(C)[nH]c(/C=C2\N=C(c3ccc[nH]3)C=C2OC)c1C` [PG3-Oc], in series [1], the “toxicity at 10 μM” value was “too toxic”. Besides, the “potency compared among PG3-Oc, prodigiosin and Obatoclax” value in series [2] is recorded as “same potency”. The “wild-type p53 protein level” value in the series with p53 protein (HCT116, 24 h) is listed as “do not upregulate expression”. In addition, the “endogenous mutant p53 R273H protein level” value in the series with p53 protein (HT29, 24 h) is recorded as “no effects on stability”. Besides, in the series with p53 protein (TOV-112D, 24 h), the “endogenous mutant p53 R175H protein level” value is given as “no effects on stability”. Also, the “exogenous mutant p53 R175H protein level” value in the series with p53 protein (engineered HCT116-R175H cells, 24 h) was “stabilize”. The IC50 with HCT116 (R175H) is 52 nM; in the series on HCT116 (WT), 47 nM; in the series on HCT116 (P53−/−), 62 nM; with TOV-112D (R175H), 38 nM; in series [5], 306 nM; in the series on HT29 (R273H), 31 nM. In series [6], the IC50 was determined as 78 nM. In addition, in the series with PUMA, the “upregulation of PUMA” value was “consistently induce upregulation”. The p53-responsive reporter activity result is recorded as “do not activate reporter activity” in [3] (1.11 μM, 6 hour and 15 hour time points); “activation” in series [3] (10 μM, 6 hours). In the series with p21, the “upregulation of p21” value was “consistently induce upregulation”. Besides, the stability in vivo entry in [4] is “unstable in vivo”. Also, the “upregulation of ATF4” value with ATF4 is listed as “induce upregulation of ATF4”. The “upregulation of DR5” value in the series on DR5 is “consistently induce upregulation”.

The values are drawn from article PMC11407758, “Integrated stress response (ISR) activation and apoptosis through HRI kinase by PG3 and other p53 pathway-restoring cancer therapeutics” (Oncotarget, 2024).
